Reference: ChEMBL document CHEMBL2203257 (Bioorg Med Chem Lett, 2012)

Experiments:
[1] = biological target: T1, Phosphatidylinositol 4,5-bisphosphate 3-kinase catalytic subunit delta isoform (Homo sapiens, UniProt O00329); assay: Inhibition of PI3Kdelta assessed as change in pIC50 by kinobeads assay
T1 sequence (O00329 whole entry): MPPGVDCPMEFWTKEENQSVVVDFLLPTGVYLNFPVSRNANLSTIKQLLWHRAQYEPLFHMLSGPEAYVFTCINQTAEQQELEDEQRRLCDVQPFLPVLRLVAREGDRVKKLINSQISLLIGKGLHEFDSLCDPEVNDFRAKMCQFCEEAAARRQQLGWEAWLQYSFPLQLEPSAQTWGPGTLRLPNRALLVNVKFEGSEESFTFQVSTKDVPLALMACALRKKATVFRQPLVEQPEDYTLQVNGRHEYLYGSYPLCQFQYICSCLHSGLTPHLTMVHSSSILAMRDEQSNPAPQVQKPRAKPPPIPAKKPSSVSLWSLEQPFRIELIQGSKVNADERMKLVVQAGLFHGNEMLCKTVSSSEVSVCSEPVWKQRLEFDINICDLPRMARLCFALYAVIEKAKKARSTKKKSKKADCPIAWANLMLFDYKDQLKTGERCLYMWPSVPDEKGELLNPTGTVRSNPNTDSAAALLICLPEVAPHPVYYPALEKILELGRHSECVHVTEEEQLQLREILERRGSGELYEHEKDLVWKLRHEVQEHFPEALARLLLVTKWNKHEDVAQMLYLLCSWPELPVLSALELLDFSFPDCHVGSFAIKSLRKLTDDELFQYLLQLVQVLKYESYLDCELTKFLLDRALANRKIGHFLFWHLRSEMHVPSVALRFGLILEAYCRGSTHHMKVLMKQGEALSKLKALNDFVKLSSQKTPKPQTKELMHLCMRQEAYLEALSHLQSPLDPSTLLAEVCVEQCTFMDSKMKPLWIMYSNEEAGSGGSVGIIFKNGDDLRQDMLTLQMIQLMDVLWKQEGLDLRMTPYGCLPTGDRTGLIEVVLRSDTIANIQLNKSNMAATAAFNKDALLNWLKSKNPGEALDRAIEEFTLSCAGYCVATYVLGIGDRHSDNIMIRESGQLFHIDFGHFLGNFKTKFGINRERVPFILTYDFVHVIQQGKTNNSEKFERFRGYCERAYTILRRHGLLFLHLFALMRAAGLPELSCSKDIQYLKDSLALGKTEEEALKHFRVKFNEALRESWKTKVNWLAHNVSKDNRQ

[2] = biological target: Phosphatidylinositol 4,5-bisphosphate 3-kinase catalytic subunit gamma isoform (Homo sapiens, UniProt P48736); assay: Inhibition of PI3Kgamma by kinobeads assay
Phosphatidylinositol 4,5-bisphosphate 3-kinase catalytic subunit gamma isoform, sequence (P48736 whole entry, canonical isoform): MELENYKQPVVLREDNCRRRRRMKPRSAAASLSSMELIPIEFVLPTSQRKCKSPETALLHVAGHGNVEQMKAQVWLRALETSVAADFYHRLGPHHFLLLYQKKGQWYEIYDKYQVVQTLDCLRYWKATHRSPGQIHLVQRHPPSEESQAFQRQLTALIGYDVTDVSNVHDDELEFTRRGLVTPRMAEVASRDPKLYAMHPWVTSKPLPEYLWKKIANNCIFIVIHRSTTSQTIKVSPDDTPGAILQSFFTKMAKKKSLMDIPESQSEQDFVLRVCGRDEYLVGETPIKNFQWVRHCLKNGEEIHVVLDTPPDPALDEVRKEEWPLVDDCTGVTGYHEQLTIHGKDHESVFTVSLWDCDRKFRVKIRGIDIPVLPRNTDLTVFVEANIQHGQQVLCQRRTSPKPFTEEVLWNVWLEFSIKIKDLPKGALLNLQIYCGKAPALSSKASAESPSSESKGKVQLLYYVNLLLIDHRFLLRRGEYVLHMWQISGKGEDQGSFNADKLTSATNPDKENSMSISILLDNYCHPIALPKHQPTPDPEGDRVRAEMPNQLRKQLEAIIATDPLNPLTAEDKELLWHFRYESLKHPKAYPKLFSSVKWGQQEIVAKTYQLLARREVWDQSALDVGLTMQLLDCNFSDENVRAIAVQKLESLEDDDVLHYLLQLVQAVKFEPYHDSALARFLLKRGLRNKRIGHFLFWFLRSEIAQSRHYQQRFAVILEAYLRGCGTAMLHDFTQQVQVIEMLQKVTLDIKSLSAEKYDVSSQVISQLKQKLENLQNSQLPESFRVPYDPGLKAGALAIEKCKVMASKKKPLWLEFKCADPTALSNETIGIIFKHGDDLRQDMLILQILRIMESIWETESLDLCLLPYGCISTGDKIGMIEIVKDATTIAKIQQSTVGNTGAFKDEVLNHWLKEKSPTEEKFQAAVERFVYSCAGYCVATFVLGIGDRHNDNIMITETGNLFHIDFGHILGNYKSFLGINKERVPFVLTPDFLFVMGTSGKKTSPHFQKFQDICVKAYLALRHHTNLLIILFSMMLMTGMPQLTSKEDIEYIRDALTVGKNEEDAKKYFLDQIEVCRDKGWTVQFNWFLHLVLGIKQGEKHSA

[3] = biological target: Phosphatidylinositol 4,5-bisphosphate 3-kinase catalytic subunit delta isoform/gamma isoform (Homo sapiens, UniProt P48736+O00329); assay: Inhibition of PI3Kgamma/delta by neutrophil migration assay
Hepatocyte [4] = assay: Metabolic stability in rat hepatocytes measured per gram of tissue; format: ADME, cell-based
Hepatocyte [5] = assay: Metabolic stability in human hepatocytes measured per gram of tissue; format: ADME, cell-based
Hepatocyte [6] = assay: Metabolic stability in mouse hepatocytes measured per gram of tissue; format: ADME, cell-based
[7] = biological target: Phosphatidylinositol 4,5-bisphosphate 3-kinase catalytic subunit beta isoform (Homo sapiens, UniProt P42338); assay: Inhibition of PI3Kbeta assessed as change in pIC50 by kinobeads assay
Phosphatidylinositol 4,5-bisphosphate 3-kinase catalytic subunit beta isoform, sequence (P42338 whole entry, canonical isoform): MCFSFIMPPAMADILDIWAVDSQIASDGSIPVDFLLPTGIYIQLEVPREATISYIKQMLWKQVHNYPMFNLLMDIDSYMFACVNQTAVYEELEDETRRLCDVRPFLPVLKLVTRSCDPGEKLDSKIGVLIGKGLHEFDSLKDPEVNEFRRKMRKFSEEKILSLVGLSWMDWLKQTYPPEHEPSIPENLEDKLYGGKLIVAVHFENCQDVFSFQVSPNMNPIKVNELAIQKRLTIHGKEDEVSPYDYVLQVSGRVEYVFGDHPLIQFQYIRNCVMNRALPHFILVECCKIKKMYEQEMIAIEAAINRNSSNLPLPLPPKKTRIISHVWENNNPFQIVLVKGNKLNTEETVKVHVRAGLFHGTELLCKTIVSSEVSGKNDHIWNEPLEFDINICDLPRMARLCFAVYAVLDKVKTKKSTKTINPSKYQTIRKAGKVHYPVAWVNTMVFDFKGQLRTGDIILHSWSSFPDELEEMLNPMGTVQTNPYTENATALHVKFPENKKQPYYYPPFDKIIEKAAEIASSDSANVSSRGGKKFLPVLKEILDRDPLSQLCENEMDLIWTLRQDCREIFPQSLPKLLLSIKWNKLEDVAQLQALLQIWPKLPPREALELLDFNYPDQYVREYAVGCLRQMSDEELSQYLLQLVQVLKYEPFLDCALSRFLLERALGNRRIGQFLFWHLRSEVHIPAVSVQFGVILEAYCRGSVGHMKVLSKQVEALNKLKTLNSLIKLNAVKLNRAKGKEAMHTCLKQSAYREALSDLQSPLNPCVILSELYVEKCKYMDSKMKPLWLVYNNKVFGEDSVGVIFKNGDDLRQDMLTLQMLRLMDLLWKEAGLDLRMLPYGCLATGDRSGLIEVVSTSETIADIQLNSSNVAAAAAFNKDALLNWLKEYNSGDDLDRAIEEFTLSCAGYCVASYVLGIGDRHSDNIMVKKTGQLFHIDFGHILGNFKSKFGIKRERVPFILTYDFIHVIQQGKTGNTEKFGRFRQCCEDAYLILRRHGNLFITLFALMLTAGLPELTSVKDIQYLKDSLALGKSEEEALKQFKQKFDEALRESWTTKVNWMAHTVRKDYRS

[8] = biological target: Phosphatidylinositol 4,5-bisphosphate 3-kinase catalytic subunit alpha isoform (Homo sapiens, UniProt P42336); assay: Inhibition of PI3Kalpha assessed as change in pIC50 by kinobeads assay
Phosphatidylinositol 4,5-bisphosphate 3-kinase catalytic subunit alpha isoform, sequence (P42336 whole entry, canonical isoform): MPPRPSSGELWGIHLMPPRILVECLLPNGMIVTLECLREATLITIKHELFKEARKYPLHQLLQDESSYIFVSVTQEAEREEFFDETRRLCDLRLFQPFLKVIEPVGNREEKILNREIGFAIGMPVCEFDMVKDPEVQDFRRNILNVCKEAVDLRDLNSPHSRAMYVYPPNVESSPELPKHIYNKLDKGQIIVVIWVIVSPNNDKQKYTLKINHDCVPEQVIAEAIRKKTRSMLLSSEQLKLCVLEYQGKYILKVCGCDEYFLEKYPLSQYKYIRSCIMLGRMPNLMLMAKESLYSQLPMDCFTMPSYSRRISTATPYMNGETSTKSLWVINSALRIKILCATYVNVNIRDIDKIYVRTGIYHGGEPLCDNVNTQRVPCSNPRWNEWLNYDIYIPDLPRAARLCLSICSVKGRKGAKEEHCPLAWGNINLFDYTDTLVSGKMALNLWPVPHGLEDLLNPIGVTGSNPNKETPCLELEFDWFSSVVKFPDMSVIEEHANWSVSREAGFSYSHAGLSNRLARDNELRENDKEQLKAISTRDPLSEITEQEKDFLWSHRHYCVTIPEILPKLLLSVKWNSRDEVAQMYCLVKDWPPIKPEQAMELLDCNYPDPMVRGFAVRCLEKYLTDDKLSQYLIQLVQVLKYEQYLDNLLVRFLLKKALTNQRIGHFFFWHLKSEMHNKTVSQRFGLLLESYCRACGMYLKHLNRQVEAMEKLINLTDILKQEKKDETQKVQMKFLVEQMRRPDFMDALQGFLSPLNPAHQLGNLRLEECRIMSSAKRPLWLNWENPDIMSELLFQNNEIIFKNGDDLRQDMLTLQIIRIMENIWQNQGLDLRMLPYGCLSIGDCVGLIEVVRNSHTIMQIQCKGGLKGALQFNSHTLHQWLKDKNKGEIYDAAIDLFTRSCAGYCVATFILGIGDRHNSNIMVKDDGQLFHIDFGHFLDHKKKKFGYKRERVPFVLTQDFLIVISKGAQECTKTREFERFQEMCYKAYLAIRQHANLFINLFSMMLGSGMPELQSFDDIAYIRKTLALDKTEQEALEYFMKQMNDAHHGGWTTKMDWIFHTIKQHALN

Mus musculus = assay: Antiinflammatory activity in mouse IL-8-induced air-pouch model assessed as inhibition of granulocyte migration at 3 mg/kg, po; design: scale not given: the % may be the effect or the level left
[9] = Half life in rat […] at 5 mg/kg, po; format: ADME, organism-based; design: dose 5 mg/kg, route oral
[10] = Oral bioavailability in Wistar rat at 5 mg/kg; conditions: in vivo
[11] = AUC in rat […] at 5 mg/kg, po; format: ADME, organism-based; design: dose 5 mg/kg, route oral
Liver microsomes = assay: Volume of distribution at steady state […] at 5 mg/kg, po; format: ADME, organism-based; design: dose 5 mg/kg, route oral
[12] = Cmax in rat […] at 5 mg/kg, po; format: ADME, organism-based; design: dose 5 mg/kg, route oral

## CCCNS(=O)(=O)c1cncc(-c2ccn3nc(N)nc3c2)c1
[1]
  IC50: < 20000 µM
[2]
  IC50: 0.0316 µM
[3]
  pIC50: 6.2

## CC(C)(C)NS(=O)(=O)c1cncc(-c2cc(F)n3nc(N)nc3c2)c1
Hepatocyte [4]
  CLint: 7.5 mL/min/g
Hepatocyte [5]
  CLint: 2.5 mL/min/g
[2]
  IC50: 0.0158 µM
Hepatocyte [6]
  CLint: 36.1 mL/min/g
[3]
  pIC50: 6.1

## Nc1nc2cc(-c3cncc(S(=O)(=O)NCc4ccccc4)c3)ccn2n1
[2]
  IC50: 0.1 µM

## CC(C)(NS(=O)(=O)c1cncc(-c2ccn3nc(N)nc3c2)c1)C(F)(F)F
[2]
  IC50: 0.02 µM
[3]
  pIC50: 5.6

## CC1(C)CCN1S(=O)(=O)c1cncc(-c2ccn3nc(N)nc3c2)c1
[2]
  IC50: 0.0251 µM
[3]
  pIC50: 5.7

## Nc1nc2cc(-c3cncc(S(=O)(=O)NCC(F)(F)F)c3)ccn2n1
[2]
  IC50: 0.02 µM
[3]
  pIC50: 5.9

## Nc1nc2cc(-c3cncc(S(N)(=O)=O)c3)ccn2n1
[2]
  IC50: 0.02 µM
[3]
  pIC50: 6.1

## CS(=O)(=O)c1cncc(-c2ccn3nc(N)nc3c2)c1
[2]
  IC50: 0.0794 µM

## CC(C)NS(=O)(=O)c1cncc(-c2ccn3nc(N)nc3c2)c1
[2]
  IC50: 0.0251 µM
[3]
  pIC50: 6.3

## CC(C)(C)NS(=O)(=O)c1cncc(-c2cc(F)c3nc(N)nn3c2)c1
[7]
  IC50: 1 µM
[1]
  IC50: 7.94 µM
[8]
  IC50: > 10 µM
Mus musculus
  Activity: 29%
[2]
  IC50: 0.0251 µM

## Nc1nc2cc(-c3cncc(S(=O)(=O)Nc4ccccc4)c3)ccn2n1
[2]
  IC50: 0.0398 µM
[3]
  pIC50: 5

## CNS(=O)(=O)c1cncc(-c2ccn3nc(N)nc3c2)c1
[9]
  half-life: 1.2 h
[10]
  bioavailability: 56%
[11]
  AUC: 6.7 µM·h
Liver microsomes
  Vdss: 2.2 L/kg
[2]
  IC50: 0.0251 µM
[12]
  Cmax: 5 µM
[3]
  pIC50: 6.3

## CCN(CC)S(=O)(=O)c1cncc(-c2ccn3nc(N)nc3c2)c1
[2]
  IC50: 0.00794 µM
[3]
  pIC50: 5.9
